Values of other authors, collected in patent publication US20070231385A1, “Controlled Release Pharmaceutical Composition and a Process for Preparing the Same” (Lupin Limited, priority 2003, published 2007).

Conditions: background statement

serum half-life: more than 25 hours
Compound: Cc1ccnc2c1NC(=O)c1cccnc1N2C1CC1 [Nevaripine]
